In a melting point compilation (Tetko et al.; mined from patent text by program, amines drawn as free bases though some values may be those of a salt):

Row | SMILES | melting point [°C]
1 | CN1CC[C@@H](c2c(O)cc(O)c3c(=O)cc(-c4cccnc4Cl)oc23)[C@@H]1CO | 125 to 127
2 | C[C@@H](SCCc1nccn1C)[C@](O)(Cn1cncn1)c1ccc(F)cc1F (racemic) | 175 to 176
3 | COc1c(Nc2ncc3ccc(-c4ccccc4N(C)S(C)(=O)=O)n3n2)ccc(N2CCN(C[C@H](C)O)CC2)c1F | 86 to 88
4 | CC1(C)CN=C2N(C1)c1ccc(C(=O)O)cc1C21OCCCO1 | 151 to 153
5 | CC(=O)Nc1ccc2[nH]c(C=CC(=O)O)cc2c1 | 238 to 239
6 | CCn1c(Oc2cccc(NC(N)=O)c2)nnc1[C@@H](C)NS(=O)(=O)c1ccc(Cl)c(Cl)c1 | 137 to 138
7 | O=C(NCC12CC3CC(CC(C3)C1)C2)c1cc(O)ccc1Cl | 263 to 264
8 | C=CC(=O)NCc1ccc([N+](=O)[O-])cc1 | 119 to 121
9 | C=Cc1ccc(CSCCNC(=S)CCC(=O)O)cc1 | 97 to 99
10 | CCC(CC)c1ccc(Cl)c2nc3n(c12)CCCCN3c1ccc(C(F)(F)F)cc1Br | 158 to 160
11 | N#CC1(CCNC(=O)C(Cl)Cl)CC1 | 97 to 100
12 | CNc1cc(SC2CCN(C)CC2)c(Cl)cc1[N+](=O)[O-] | 102
13 | O=C(O)c1cn(C2CC2)c2c(F)c(N3CCC4(C3)OCCCO4)c(F)cc2c1=O | 226 to 227
14 | CCC1(CC)C(=O)N(CC(O)Cc2cc(C)c(O)c(C(C)(C)C)c2)C(=O)N(CC(O)Cc2cc(C)c(O)c(C(C)(C)C)c2)C1=O (stereo not drawn) | 147 to 148
15 | CCO/C(=N/O)C1Cc2cc(C(=O)c3ccccc3F)c(O)c(Cl)c2O1 (stereo not drawn) | 171 to 172
16 | CCOC(=O)C(C)Oc1ccc(Oc2ccc3cc(Br)ccc3n2)cc1 (stereo not drawn) | 85
17 | COc1cc2sc(CC(C)(Oc3ccc(C(C)C)cc3)C(=O)O)cc2c(Cl)c1OC (stereo not drawn) | 105 to 108
18 | CC1(C)CCC(C)(C)c2cc(CCCSN3C=CC=NC3)c(/C=C/c3ccc(C(=O)O)cc3)cc21 | 177 to 178
19 | O=c1[nH]c2cc(Cl)c(Cl)cc2n1CCCBr | 198

Row | SMILES | melting point [°C]
20 | COc1cc(N)c2nccc(C)c2c1OCCCCCCCCCc1ccccc1 | 32 to 32.5
21 | O=C(CCl)NC(NC(=O)c1ccccc1)C(Cl)(Cl)Cl (stereo not drawn) | 211 to 213
22 | N=c1sc2cc(OC(F)(F)F)ccc2n1CCS(=O)c1ccncc1 (stereo not drawn) | 194
23 | N#Cc1ccccc1-c1ccc(CNC(=S)NN)cc1 | 163 to 164
24 | CC(=O)NCC1CN(c2cc(F)c(-c3cccnc3)c(F)c2)C(=O)O1 (stereo not drawn) | 218 to 219
25 | CCN(CC)CCCCC1CCN(C(=O)N2c3cc(Cl)ccc3C(=O)Nc3cccnc32)CC1 | 126 to 127
26 | CCOC(=O)C=Cc1ccc(C=Cc2csc3ccccc23)s1 | 99 to 100
27 | COC(=O)C1Cc2c([nH]c3ccccc23)C(c2ccc(O)cc2)N1 (stereo not drawn) | 233 to 235
28 | COc1nc(C)nc(NC(=N)SC)n1 | 112
29 | Cc1ccc(Sc2ccnc3sccc23)cc1 | 90 to 92
30 | Cc1cc(C)c2cccc(OCc3c(C)ccc(S(=O)(=O)N4CCC[C@H]4C(=O)NCCCNC(=O)c4ccc(C=NN)cc4)c3C)c2n1 | 150
31 | CCCn1ncc2c(=O)[nH]c(-c3cc(C(=O)N4CCN(C)CC4)ccc3OCC)nc21 | 124 to 127
32 | Cc1oc(-c2cccc(-c3nc(CCO)c(C)o3)c2)nc1CCO | 134 to 135
33 | Cc1ccc([N+](=O)[O-])cc1Nc1nccc(-c2cccnc2)n1 | 186 to 188
34 | CC(C)(C)OC(=O)COc1ccc(NC(=O)OCc2ccccc2)cc1 | 109 to 110
35 | CC(C)(C)C(=O)c1c(CC(C)(C)C(=O)O)n(Cc2ccc(Cl)cc2)c2ccc(OCc3ccc4sccc4n3)cc12 | 193 to 194
36 | COC(=O)CC[C@H](NC(=O)c1cccc(CCC2CNc3nc(NC(=O)C(C)(C)C)nc(O)c3C2)c1)C(=O)OC (stereo partly drawn) | 141 to 148
37 | CCN(C(C)=O)c1cccc(-c2ccnc3c([N+](=O)[O-])cnn23)c1 | 176 to 178
38 | O=C(CC(=O)c1cc(O)ccc1O)c1ccc(OCc2ccccc2)c(OCc2ccccc2)c1 | 196 to 197
